# Assay results from PMC8779255, “Determining the Anticancer Activity of Sphingosine Kinase Inhibitors Containing Heteroatoms in Their Tail Structure” (Pharmaceutics, 2022).
# How the values were obtained:
# SK2 enzyme = molecular target: T1, SK2 enzyme (Homo sapiens, UniProt Q9NRA0); experiment: SK activity assay (Adapta screening system); assay type: biochemical; details: 20 μM, Figure 5A
# T1 construct: purchased Thermo Fisher Scientific
# Protocol: (§1) The effect of compounds in sphingosine kinase activity was examined using the […] screening system (Thermo Fisher Scientific System, Waltham, MA, USA). The kinase inhibition ability of compounds 1-11 along with RB005 was measured with final concentration of 20 μM. […] The data were presented as percentage inhibition of SK enzyme by individual compounds.
# SK1 enzyme = molecular target: T2, SK1 enzyme (Homo sapiens, UniProt Q9NYA1); experiment: SK activity assay (Adapta screening system); assay type: biochemical; details: 20 μM, Figure 5A
# T2 construct: purchased Thermo Fisher Scientific
# T2 sequence (Q9NYA1 whole entry): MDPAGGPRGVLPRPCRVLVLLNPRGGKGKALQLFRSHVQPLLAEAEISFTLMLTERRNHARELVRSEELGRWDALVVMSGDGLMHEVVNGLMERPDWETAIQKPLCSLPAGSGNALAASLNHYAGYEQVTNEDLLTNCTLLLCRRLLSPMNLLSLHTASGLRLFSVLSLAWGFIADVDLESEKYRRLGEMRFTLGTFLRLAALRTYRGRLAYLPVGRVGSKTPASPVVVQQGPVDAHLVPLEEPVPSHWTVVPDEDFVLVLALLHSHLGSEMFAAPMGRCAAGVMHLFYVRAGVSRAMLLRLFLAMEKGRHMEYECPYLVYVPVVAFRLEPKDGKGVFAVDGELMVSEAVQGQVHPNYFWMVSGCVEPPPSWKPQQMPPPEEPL
# Protocol: as §1
# HCT116 cells = experiment: MTT cell viability assay; assay type: cell-based, human
# Protocol: (§2) The HT29 and HCT116 cells (human colon cancer), AGS (human gastric cancer), and MIA PaCa-2 cells (human pancreatic cancer) were purchased from Korean Cell Line Bank (Seoul, Korea). Cancer cells were maintained in RPMI (HT29 and AGS) and DMEM (HCT116 and MIA PaCa-2) culture media supplemented with 10% fetal bovine serum (FBS) and 100 U/mL penicillin and streptomycin at 37 °C in a 95% humidified incubator containing 5% CO2. The cytotoxic effect of the compounds was assessed using the MTT cell viability assay. Briefly, 3 × 10^3 cells/well were grown in 96-well plates for 24 h. After treatment with desired concentration of respective compounds for 24 h or 48 h, the EZ-CYTOTOX (10 µM) reagent was added in each well and incubated for 90 min. The absorbance was measured at 450 nm wavelength using Skanlt software 5.0 (Thermo Scientific, Waltham, MA, USA) installed on a Multiskan GO (Thermo Scientific, Waltham, MA, USA) spectrophotometer. Each experiment was independently repeated three times (n = 12).
# HT29 cells [1] = experiment: MTT cell viability assay; assay type: cell-based, human
# Protocol: as §2
# S1PR4 = test system: S1PR4; set-up: method as in PMID 27297359; details: in Figure 1, no unit; cited from earlier work
# S1PR2 = test system: S1PR2; set-up: method as in PMID 27297359; details: in Figure 1, no unit; cited from earlier work
# S1PR5 = test system: S1PR5; set-up: method as in PMID 27297359; details: in Figure 1, no unit; cited from earlier work
# S1PR1 = test system: S1PR1; set-up: method as in PMID 27297359; details: in Figure 1, no unit; cited from earlier work
# S1PR3 = test system: S1PR3; set-up: method as in PMID 27297359; details: in Figure 1, no unit; cited from earlier work
# CYP2D6 = CYP2D6 (Homo sapiens, UniProt P10635); experiment: Inhibition of CYP enzymes activity, human liver microsomes; details: human liver microsomes 0.25 mg/mL, 10 μM, dextromethorphan substrate
# CYP2D6, sequence (P10635 whole entry): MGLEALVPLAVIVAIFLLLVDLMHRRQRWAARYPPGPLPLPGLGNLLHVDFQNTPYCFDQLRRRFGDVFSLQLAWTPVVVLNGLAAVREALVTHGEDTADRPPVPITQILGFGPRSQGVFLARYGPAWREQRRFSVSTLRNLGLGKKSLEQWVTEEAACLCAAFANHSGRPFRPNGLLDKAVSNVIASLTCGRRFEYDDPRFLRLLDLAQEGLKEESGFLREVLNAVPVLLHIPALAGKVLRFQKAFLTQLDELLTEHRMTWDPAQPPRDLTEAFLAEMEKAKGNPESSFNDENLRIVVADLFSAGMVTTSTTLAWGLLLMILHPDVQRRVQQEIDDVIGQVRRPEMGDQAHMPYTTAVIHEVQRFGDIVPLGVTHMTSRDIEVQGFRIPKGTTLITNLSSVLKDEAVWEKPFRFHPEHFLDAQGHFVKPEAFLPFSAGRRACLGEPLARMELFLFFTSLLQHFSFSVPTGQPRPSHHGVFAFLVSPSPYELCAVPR
# Protocol: (§3) Afterward, to terminate the reaction, an acetonitrile solution containing an internal standard (terfenadine) was added, centrifuged for 5 min (14,000 rpm, 4 °C), and the supernatant was injected into the LC-MS/MS system. By simultaneously analyzing metabolites, the ability of the six compounds to inhibit drug metabolism enzymes was evaluated.
# (§4) Metabolites of each CYP coenzyme indicator drug generated through the above reaction were analyzed using the Shimadzu Nexera XR system and TSQ vantage (Thermo). The HPLC column was a Kinetex C18 column (2.1 × 100 mm^2, 2.6 μm particle size; Phenomenex, Torrance, CA, USA), and the mobile phase was distilled water (A) containing 0.1% formic acid and acetonitrile (B) containing 0.1% formic acid. […] The generated metabolites were quantified using MRM (Multiple Reaction Monitoring) quantification modes, and data were analyzed using Xcalibur (version 1.6.1).
# CYP1A2 = molecular target: T3, CYP1A2 (Homo sapiens, UniProt P05177); experiment: as above; details: human liver microsomes 0.25 mg/mL, 10 μM, phenacetin substrate
# T3 sequence (P05177 1-516): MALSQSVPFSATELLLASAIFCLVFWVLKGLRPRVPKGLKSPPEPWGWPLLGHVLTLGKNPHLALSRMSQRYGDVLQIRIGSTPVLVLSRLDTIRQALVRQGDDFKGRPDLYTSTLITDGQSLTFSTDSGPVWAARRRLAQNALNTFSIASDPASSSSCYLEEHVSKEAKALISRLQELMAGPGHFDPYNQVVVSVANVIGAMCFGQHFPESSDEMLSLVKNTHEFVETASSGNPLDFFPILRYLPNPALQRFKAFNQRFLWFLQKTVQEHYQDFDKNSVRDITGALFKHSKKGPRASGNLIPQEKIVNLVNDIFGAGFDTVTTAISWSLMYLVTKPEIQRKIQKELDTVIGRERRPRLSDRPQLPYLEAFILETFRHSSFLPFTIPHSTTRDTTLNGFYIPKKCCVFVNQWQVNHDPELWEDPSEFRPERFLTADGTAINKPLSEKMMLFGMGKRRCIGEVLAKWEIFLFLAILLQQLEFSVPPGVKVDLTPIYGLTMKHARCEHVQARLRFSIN
# Protocol: as §3, §4
# CYP2C19 = CYP2C19 (Homo sapiens, UniProt P33261); experiment: as above; details: human liver microsomes 0.25 mg/mL, 10 μM, S-mephenytoin substrate
# CYP2C19, sequence (P33261 whole entry): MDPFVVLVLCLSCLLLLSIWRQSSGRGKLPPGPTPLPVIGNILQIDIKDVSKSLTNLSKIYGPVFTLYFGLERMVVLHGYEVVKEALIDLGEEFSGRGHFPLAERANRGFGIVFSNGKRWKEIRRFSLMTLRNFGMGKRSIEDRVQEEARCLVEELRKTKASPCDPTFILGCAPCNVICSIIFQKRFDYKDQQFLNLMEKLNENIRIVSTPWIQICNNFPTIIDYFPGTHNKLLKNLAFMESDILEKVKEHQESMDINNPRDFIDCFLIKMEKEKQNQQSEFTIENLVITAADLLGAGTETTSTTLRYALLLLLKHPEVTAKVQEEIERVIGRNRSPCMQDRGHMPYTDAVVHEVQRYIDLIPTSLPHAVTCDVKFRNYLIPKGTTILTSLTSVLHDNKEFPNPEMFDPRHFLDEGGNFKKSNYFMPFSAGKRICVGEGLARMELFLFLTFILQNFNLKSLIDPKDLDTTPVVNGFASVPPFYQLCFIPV
# Protocol: (§5) By simultaneously analyzing metabolites, the ability of the six compounds to inhibit drug metabolism enzymes was evaluated.
# as §4
# CYP3A4 = molecular target: T4, CYP3A4 (Homo sapiens, UniProt P08684); experiment: as above; assay type: in vitro ADME; details: human liver microsomes 0.25 mg/mL, 10 μM, midazolam substrate
# T4 construct: Human liver microsomes (0.25 mg/mL); from tissue; host or cells: human liver microsomes
# T4 sequence (P08684 whole entry): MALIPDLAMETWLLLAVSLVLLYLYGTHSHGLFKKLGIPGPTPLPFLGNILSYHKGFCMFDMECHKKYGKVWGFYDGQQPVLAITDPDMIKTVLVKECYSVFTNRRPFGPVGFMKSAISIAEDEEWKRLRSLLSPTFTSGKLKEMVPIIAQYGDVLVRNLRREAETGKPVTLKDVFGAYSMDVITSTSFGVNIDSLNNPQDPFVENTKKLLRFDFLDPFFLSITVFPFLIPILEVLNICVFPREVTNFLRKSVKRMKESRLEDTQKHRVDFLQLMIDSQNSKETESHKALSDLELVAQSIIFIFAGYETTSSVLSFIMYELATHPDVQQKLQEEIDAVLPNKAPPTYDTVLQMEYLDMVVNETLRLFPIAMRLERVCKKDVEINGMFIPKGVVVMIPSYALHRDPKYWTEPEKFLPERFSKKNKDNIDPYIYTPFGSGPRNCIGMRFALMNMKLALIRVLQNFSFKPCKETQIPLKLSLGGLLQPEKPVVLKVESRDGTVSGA
# Protocol: as §5, §4
# [2] = In vitro metabolic stability in liver microsomes
# Protocol: Microsome incubation was measured in triplicate in a 1.5 mL Eppendorf tube with 0.1 M potassium phosphate buffer (pH 7.4). […] It has a final volume of 100 mL in the presence of an NADPH regeneration system. In the final incubation mixture, 0.5 mg/mL HLM, 0.1 M potassium phosphate buffer (pH 7.4), and NADPH regeneration system (1 mM NADPH, 10 mM MgCl2) were included. In the pre-incubation mixture, HLM was added, and the mixture was run in a shaking incubator at approximately 350 rpm and 37 °C for 5 min under a Thermomixer (Eppendorf, Hamburg, Germany). Reactions were initiated by the addition of 1 mM NADPH and then quenched by the addition of 40 μL of ice-cold acetonitrile containing 10 μM chlorpropamide (CPP) as an internal standard at 0 and 30 min. After quenching, centrifugation of the incubation mixture was performed at 15,000× g for 5 min at 4 °C. An aliquot of 2 µL of the supernatant was injected into the LC-MS/MS system. The LC-MS/MS system was Xcalibur version 1.1.1 (Thermo Fisher Scientific Inc., Waltham, MA, USA).
# [3] = In vitro metabolic stability in liver microsomes; assay type: in vitro ADME, mouse
# HT29 cells [4] = experiment: Annexin V-FITC/PI staining, flow cytometry; assay type: cell-based, human; details: HT29, 10 and/or 20 µM, 24 h
# Protocol: After treating HT29 and HCT116 cells with compounds 10, 11, 13 and FTY720 according to the manufacturer’s instruction, the annexin V and PI staining technique was employed to determine apoptosis in the cells. Briefly, cells (2.5 × 10^5 cells/well) were seeded in 12-well plates and treated with 10 and/or 20 µM of compounds for 24 h. Cells were collected using trypsin-EDTA and stained with annexin V-FITC dye for 15 min at room temperature, followed by PI staining for 20 min and analyzed by flow cytometer (MACSQuant Analyzer 10; Miltenyi Biotec, Bergisch Gladbach, Germany). The data was analyzed using MACSQuantify^TM version 2.8 software (Miltenyi Biotec, Bergisch Gladbach, Germany) and presented as early apoptosis, late apoptosis, or combined apoptosis percentage. Each experiment was repeated three times independently (n = 6).
# [5] = In vitro metabolic stability in liver microsomes; assay type: in vitro ADME, rat
# SK2 = details: known compounds, Figure 1; cited from earlier work
# PP2A in HCT116 cells = molecular target: T5, PP2A in HCT116 cells (Homo sapiens, UniProt P67775); experiment: PP2A activity assay (immunoprecipitation kit); assay type: cell-based; details: HCT116, 24 h, 20 µM of compounds 10, 11 and 13; vs nontreated control cells
# T5 construct: endogenous in cells; host or cells: HCT116
# T5 sequence (P67775 whole entry): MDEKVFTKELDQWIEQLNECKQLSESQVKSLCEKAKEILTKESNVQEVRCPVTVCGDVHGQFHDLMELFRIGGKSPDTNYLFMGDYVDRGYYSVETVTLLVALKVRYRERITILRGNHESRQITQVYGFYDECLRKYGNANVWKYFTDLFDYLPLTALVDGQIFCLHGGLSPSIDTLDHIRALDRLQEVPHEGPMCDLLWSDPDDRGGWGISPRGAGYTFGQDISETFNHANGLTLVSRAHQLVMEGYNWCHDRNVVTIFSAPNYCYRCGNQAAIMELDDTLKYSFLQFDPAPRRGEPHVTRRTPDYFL
# Protocol: The activity of PP2A was measured by using the PP2A kit according to the manufacturer’s instruction. The cell lysate was incubated with anti PP2A, C subunit antibody, and protein A agarose slurry for 2 h at 4 °C. The phosphopeptide solution (60 µL) was mixed and incubated at 30 °C for 10 min in a shaker. After a brief centrifuge, a 25 µL sample was liquated in ½ volume microplate and 100 µL malachite green phosphate detection working solution was added. After color development, absorbance was taken at 650 nm in a Multiskan GO microplate reader. A phosphate standard curve was constructed using phosphate standard, and results were calculated using this standard curve. This experiment was repeated three times (n = 6).
# CYP2C9 = CYP2C9 (Homo sapiens, UniProt P11712); experiment: Inhibition of CYP enzymes activity, human liver microsomes; details: human liver microsomes 0.25 mg/mL, 10 μM, diclofenac substrate
# CYP2C9, sequence (P11712 whole entry): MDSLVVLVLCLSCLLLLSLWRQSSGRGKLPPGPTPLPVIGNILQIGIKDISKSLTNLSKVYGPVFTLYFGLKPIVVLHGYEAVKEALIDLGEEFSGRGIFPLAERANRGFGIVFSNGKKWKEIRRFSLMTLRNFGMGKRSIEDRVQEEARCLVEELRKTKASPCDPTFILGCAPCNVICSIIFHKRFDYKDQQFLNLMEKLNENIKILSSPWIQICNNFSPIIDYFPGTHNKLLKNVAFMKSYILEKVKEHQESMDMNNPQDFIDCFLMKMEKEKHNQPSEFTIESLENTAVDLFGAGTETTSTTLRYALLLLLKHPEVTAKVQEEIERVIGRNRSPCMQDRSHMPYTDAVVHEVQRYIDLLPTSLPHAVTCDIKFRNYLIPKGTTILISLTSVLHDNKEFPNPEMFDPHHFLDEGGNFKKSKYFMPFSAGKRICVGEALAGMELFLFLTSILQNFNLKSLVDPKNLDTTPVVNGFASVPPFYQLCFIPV
# Protocol: as §5, §4
# SK1 = details: known compounds, Figure 1; cited from earlier work
# [6] = % remaining after 30 min, NADPH
# T1 sequence (Q9NRA0 whole entry): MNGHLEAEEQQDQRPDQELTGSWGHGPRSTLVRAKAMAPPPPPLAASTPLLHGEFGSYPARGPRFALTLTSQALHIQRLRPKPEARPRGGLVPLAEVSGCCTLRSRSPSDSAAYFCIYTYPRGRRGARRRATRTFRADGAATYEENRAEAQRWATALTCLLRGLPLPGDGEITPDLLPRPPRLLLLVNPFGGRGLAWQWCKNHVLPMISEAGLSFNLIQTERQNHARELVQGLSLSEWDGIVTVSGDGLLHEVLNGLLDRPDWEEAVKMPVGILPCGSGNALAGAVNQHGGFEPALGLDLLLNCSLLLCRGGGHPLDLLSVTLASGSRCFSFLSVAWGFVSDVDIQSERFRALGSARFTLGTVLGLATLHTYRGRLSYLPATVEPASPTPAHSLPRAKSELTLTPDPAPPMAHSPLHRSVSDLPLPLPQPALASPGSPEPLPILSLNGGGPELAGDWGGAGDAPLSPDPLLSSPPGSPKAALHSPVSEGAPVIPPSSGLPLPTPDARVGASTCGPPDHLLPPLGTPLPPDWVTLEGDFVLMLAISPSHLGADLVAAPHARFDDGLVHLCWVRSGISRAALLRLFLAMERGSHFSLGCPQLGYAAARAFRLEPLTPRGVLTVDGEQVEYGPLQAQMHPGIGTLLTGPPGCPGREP
structure (smiles),measurement,setting,value
"CCCCCCCOc1ccc(CCN2CCC(O)CC2)cc1 [Compound 3, 1-(4-(Heptyloxy)phenethyl)piperidin-4-ol]",SK1/2 inhibitory effect compared to RB005 (SK2),SK2 enzyme,three times higher
same,SK1/2 inhibitory effect compared to RB005 (SK1),SK1 enzyme,three times higher
same,cytotoxic effect (cell viability),"HCT116 cells; HCT116, 20 and 40 µM, 24 h, Figure 2B","only 40 µM concentration of compounds 3, 5 and 9 shows significant cytotoxic effect"
same,cytotoxic effect (cell viability),"HT29 cells [1]; HT29, 20 and 40 µM, 24 h, Figure 2A",more cytotoxic than RB005 and 5-FU
CC1=C(CN2CC(C(=O)O)C2)CCc2cc(OCCCCc3ccccc3)ccc21 [Compound W-061],"Binding affinity, S1PR4",S1PR4,65.4
same,"Binding affinity, S1PR2",S1PR2,> 43800
same,"Binding affinity, S1PR5",S1PR5,10.5
same,"Binding affinity, S1PR1",S1PR1,4.11
same,"Binding affinity, S1PR3",S1PR3,1710
CCCCCCCCc1ccc(CCC(N)(CO)CO)cc1 [FTY720],CYP2D6 activity (% of control activity),CYP2D6,92.0%
same,CYP1A2 activity (% of control activity),CYP1A2,86.5%
same,CYP2C19 activity (% of control activity),CYP2C19,86.8%
same,CYP3A4 activity (% of control activity),CYP3A4,>100%
same,"liver microsomal stability, Human (%)","[2]; % remaining after 30 min, 0.5 mg/mL microsomes, NADPH",90.5%
same,liver microsomal stability (in words),[2]; human,stable
same,"liver microsomal stability, Mouse (%)",[3]; [6],89.9%
same,liver microsomal stability (in words),[3]; mouse,stable
same,apoptosis (annexin V assay),HT29 cells [4],increased apoptosis
same,"liver microsomal stability, Rat (%)",[5]; [6],77.0%
same,liver microsomal stability (in words),[5]; rat,stable
same,IC50,SK2,5 to 12.5 µM
same,PP2A activity increase,PP2A in HCT116 cells,1.65 fold
same,IC50,"HCT116 cells; Homo sapiens, HCT-116, HCT116, 48 h treatment, 2.5–40 µM, read-out: relative IC50 (cell viability)",4.19 µM
same,IC50,"HT29 cells [1]; Homo sapiens, HT-29, HT29, 48 h treatment, 2.5–40 µM, read-out: relative IC50 (cell viability)",4.18 µM
same,CYP2C9 activity (% of control activity),CYP2C9,96.8%
same,IC50,SK1,5 to 12.5 µM
